# Reference: ChEMBL document CHEMBL3046756, “Synthesis, anti-inflammatory, and structure antioxidant activity relationship of novel 4-quinazoline” (Med Chem Res, 2013)
# Activity calls are given as the source filed them. The calls are words filed in the database; no cut-off is given here.
# Experiments:
# Format in all cases: functional
# [1] = Antioxidant activity assessed as inhibition of linoleic acid peroxidation at 100 mg/l after 24 hr by spectrophotometric analysis
# [2] = Antioxidant activity assessed as reduction of Fe3+ to Fe2+ at 20 to 140 ug/ml after 30 min by spectrophotometric analysis
# Rattus norvegicus [3] = experiment: Anti-inflammatory activity in Wistar Rattus norvegicus (rat) assessed as inhibition of carrageenan-induced paw edema at 30 mg/kg, po administered 30 min prior to carrageenan challenge measured at 60 min relative to untreated control
# Rattus norvegicus [4] = experiment: Anti-inflammatory activity in Wistar Rattus norvegicus (rat) assessed as inhibition of carrageenan-induced paw edema at 30 mg/kg, po administered 30 min prior to carrageenan challenge measured at 30 min post carrageenan challenge relative to untreated control
# Rattus norvegicus [5] = experiment: Anti-inflammatory activity in Wistar Rattus norvegicus (rat) assessed as inhibition of carrageenan-induced paw edema at 30 mg/kg, po administered 30 min prior to carrageenan challenge measured at 180 min relative to untreated control
# Rattus norvegicus [6] = experiment: Anti-inflammatory activity in Wistar Rattus norvegicus (rat) assessed as inhibition of carrageenan-induced paw edema at 30 mg/kg, po administered 30 min prior to carrageenan challenge measured at 120 min relative to untreated control
# Rattus norvegicus [7] = experiment: Anti-inflammatory activity in Wistar Rattus norvegicus (rat) assessed as inhibition of carrageenan-induced paw edema at 30 mg/kg, po administered 30 min prior to carrageenan challenge measured at 90 min relative to untreated control
# Rattus norvegicus [8] = experiment: Effect on GST level in Wistar Rattus norvegicus (rat) liver measured CDNB conjugated per min per mg of protein at 30 mg/kg, po after 10 days (reference value: 0.86 +/- 0.08 mmol)
# Rattus norvegicus [9] = experiment: Effect on glutathione reductase level in Wistar Rattus norvegicus (rat) liver measured NADPH oxidized per min per mg of protein at 30 mg/kg, po after 10 days (reference value: 4.19 +/ 0.42 nmol)
# Rattus norvegicus [10] = experiment: Effect on gamma-glutamyl transferase level in Wistar Rattus norvegicus (rat) serum at 30 mg/kg, po qd after 10 days (reference value: 0.57 +/- 0.04 U/I)
# Rattus norvegicus [11] = experiment: Effect on ALP level in Wistar Rattus norvegicus (rat) serum at 30 mg/kg, po qd after 10 days (reference value: 39.5 +/- 3.86 U/I)
# Rattus norvegicus [12] = experiment: Effect on SGPT level in Wistar Rattus norvegicus (rat) at 30 mg/kg, po qd after 10 days (reference value: 38.77 +/- 4.25 U/I)
# Rattus norvegicus [13] = experiment: Effect on SGOT level in Wistar Rattus norvegicus (rat) at 30 mg/kg, po qd after 10 days (reference value: 145.50 +/- 13.86 U/I)
# Rattus norvegicus [14] = experiment: Effect on glutathione peroxidase level in Wistar Rattus norvegicus (rat) liver measured GSH oxidized per min per mg of protein at 30 mg/kg, po after 10 days (reference value: 47.47 +/- 3.86 mmol)
# Rattus norvegicus [15] = experiment: Effect on GSH level in Wistar Rattus norvegicus (rat) liver measured per mg of protein at 30 mg/kg, po after 10 days (reference value: 1.84 +/- 0.092 mg)
# Rattus norvegicus [16] = experiment: Effect on TBARS level in Wistar Rattus norvegicus (rat) serum at 30 mg/kg, po qd after 10 days (reference value: 0.82 +/- 0.073 nmol/ml)
# Rattus norvegicus [17] = experiment: Effect on LDH level in Wistar Rattus norvegicus (rat) serum at 30 mg/kg, po qd after 10 days (reference value: 249.89 +/- 13.26 U/I)
# [18] = test system: Radical scavenging activity; experiment: Antioxidant activity assessed as DPPH free radical scavenging activity at 0.06 mg/ml after 5 to 60 min by spectrophotometric analysis
# Rattus norvegicus [19] = experiment: Antipyretic activity in Wistar Rattus norvegicus (rat) assessed as decrease in Brewer's yeast solution-induced hyperthermia at 20 mg/kg, po measured after 3 hr (reference value: 36.8 +/- 1.9 degC)
# Rattus norvegicus [20] = experiment: Antipyretic activity in Wistar Rattus norvegicus (rat) assessed as decrease in Brewer's yeast solution-induced hyperthermia at 20 mg/kg, po measured after 2 hr (reference value: 37 +/- 1.7 degC)
# Rattus norvegicus [21] = experiment: Antipyretic activity in Wistar Rattus norvegicus (rat) assessed as decrease in Brewer's yeast solution-induced hyperthermia at 20 mg/kg, po measured after 1 hr (reference value: 37 +/- 3.55 degC)
compound,measurement,setting,value
Cc1cc(C(C)(C)C)c(O)c(C(C)(C)C)c1,inhibition,[1],Active
same,Activity,[2],Active
O=C([O-])Cc1ccccc1Nc1c(Cl)cccc1Cl.[Na+] [DICLOFENAC SODIUM],inhibition in vivo at 30 mg/kg,Rattus norvegicus [3],82%
same,inhibition in vivo at 30 mg/kg,Rattus norvegicus [4],41.3%
same,inhibition in vivo at 30 mg/kg,Rattus norvegicus [5],100%
same,inhibition in vivo at 30 mg/kg,Rattus norvegicus [6],92.8%
same,inhibition in vivo at 30 mg/kg,Rattus norvegicus [7],86.3%
same,Activity,Rattus norvegicus [8],0.63 mmol
same,Activity,Rattus norvegicus [9],3.28 nmol
same,Activity,Rattus norvegicus [10],1.37 U/L
same,Activity,Rattus norvegicus [11],75.25 U/L
same,Activity,Rattus norvegicus [12],84.43 U/L
same,Activity,Rattus norvegicus [13],201.27 U/L
same,Activity,Rattus norvegicus [14],32.09 mmol
same,Activity,Rattus norvegicus [15],0.79 mg
same,Activity,Rattus norvegicus [16],1.41 nmol/mL
same,Activity,Rattus norvegicus [17],320.69 U/L
Cc1c(C)c2c(c(C)c1O)CCC(C)(C(=O)O)O2 (centres undefined),inhibition,[1],Active
same,Activity,[18],Active
CC(=O)Nc1ccc(O)cc1 [ACETAMINOPHEN],T,Rattus norvegicus [19],36.4 °C
same,T,Rattus norvegicus [20],36.8 °C
same,T,Rattus norvegicus [21],37 °C
Cc1c(C)c2c(c(C)c1O)CC[C@@](C)(CCC[C@H](C)CCC[C@H](C)CCCC(C)C)O2,inhibition,[1],Active
same,Activity,[2],Active
